Experiments:
human TGR5 receptor = target: T1, human TGR5 receptor (Homo sapiens, UniProt Q8TDU6); experiment: Human TGR5 cAMP production assay (hTGR5-CHO cells, DiscoveRx cAMP XS+ kit); type: cell-based; settings: luminescent cAMP assay, read-out: Human TGR5 Lum. cAMP Activity (EC50)
T1 construct: host or cells: CHO-K1 (hTGR5-CHO)
T1 sequence (Q8TDU6 1-330): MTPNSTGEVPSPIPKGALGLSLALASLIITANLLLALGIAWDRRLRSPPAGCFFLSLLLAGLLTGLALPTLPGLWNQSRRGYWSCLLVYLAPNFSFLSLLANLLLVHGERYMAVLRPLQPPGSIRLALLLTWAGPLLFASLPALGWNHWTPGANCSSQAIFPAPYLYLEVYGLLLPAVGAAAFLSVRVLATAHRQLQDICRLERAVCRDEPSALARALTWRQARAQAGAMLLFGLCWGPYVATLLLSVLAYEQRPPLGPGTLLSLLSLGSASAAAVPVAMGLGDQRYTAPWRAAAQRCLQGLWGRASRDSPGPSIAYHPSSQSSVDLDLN
How it was run: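 CHO-K1 cells stably expressing hTGR5, in PBS with IBMX and cAMP antibody, treated with half-log compound dilutions for 1 h at room temperature. cAMP measured by enzyme-fragment complementation luminescence after overnight detection; EC50 values reported.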

mouse TGR5 receptor = target: T2, mouse TGR5 receptor (Mus musculus, UniProt Q80SS6); experiment: Mouse TGR5 HTRF cAMP production assay (HEK293-EBNA cells, Cisbio cAMP HiRange kit); type: cell-based; settings: HEK293-EBNA cells overexpressing mouse TGR5, HTRF cAMP assay
T2 construct: host or cells: HEK293-EBNA (293 c18, ATCC CRL10852)
T2 sequence (Q80SS6 1-329): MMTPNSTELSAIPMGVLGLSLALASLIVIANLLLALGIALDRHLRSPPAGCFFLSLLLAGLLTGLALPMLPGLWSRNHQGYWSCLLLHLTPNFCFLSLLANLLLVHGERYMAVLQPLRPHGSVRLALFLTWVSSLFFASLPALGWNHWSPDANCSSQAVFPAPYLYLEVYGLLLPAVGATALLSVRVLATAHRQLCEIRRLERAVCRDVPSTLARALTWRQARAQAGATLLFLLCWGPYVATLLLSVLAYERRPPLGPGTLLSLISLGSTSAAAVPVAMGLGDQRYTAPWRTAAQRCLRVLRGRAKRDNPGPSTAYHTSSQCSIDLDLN
How it was run: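 HEK293-EBNA cells stably expressing mouse TGR5 (episomal vector) were suspended in serum-free DMEM with 500 μM IBMX and exposed to 12-point half-log compound dilutions for 1 h at room temperature. cAMP was detected by HTRF (d2-cAMP/anti-cAMP cryptate, 1 h, room temperature), giving EC50 from duplicates.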

| Compound | EC50 (human TGR5 receptor) | EC50 (mouse TGR5 receptor) |
| --- | --- | --- |
| CN(C)CCN1CCN(c2cc(N3CC[C@H]3C(=O)NCCc3ccc(C#N)cc3)nc(C(F)(F)F)n2)CC1 [Compound 226, (S)-N-(4-cyanophenethyl)-1-(6-(4-(2-(dimethylamino)ethyl)piperazin-1-yl)-2-(trifluoromethyl)pyrimidin-4-yl)azetidine-2-carboxamide] | 100 to 999 nM | 100 to 999 nM |
| COc1cc(C(F)(F)F)ccc1CCNC(=O)[C@@H]1CCN1c1cc(N2CCC(CO)CC2)nc(C(F)(F)F)n1 [Compound 237, (S)-1-(6-(4-(hydroxymethyl)piperidin-1-yl)-2-(trifluoromethyl)pyrimidin-4-yl)-N-(2-methoxy-4-(trifluoromethyl)phenethyl)azetidine-2-carboxamide] | < 100 nM | < 100 nM |
| Cc1nc(N2CCC(CO)CC2)cc(N2CCC[C@H]2C(=O)NCCc2ccc(C#N)cc2)n1 [Compound 36] | 100 to 999 nM | 1000 to 30000 nM |
| O=C(O)CCCC1CCN(c2cc(N3CCC[C@H]3C(=O)NCCc3ccc(Cl)cc3Cl)ncn2)CC1 [Compound 35] | 1000 to 30000 nM | 100 to 999 nM |
| CC(C)(C)OC(=O)N[C@@H](CO)C(=O)N1CCN(c2cc(N3CCC[C@@H](C(=O)NCCc4ccc(C(F)(F)F)cc4)C3)nc(C(F)(F)F)n2)CC1 [Compound 341, tert-butyl ((S)-3-hydroxy-t-oxo-1-(4-(2-(trifluoromethyl)-6-((R)-3-((4-(trifluoromethyl)phenethyl)carbamoyl)piperidin-1-yl)pyrimidin-4-yl)piperazin-1-yl)propan-2-yl)carbamate] | 1000 to 30000 nM | 100 to 999 nM |
| N=C(N)N1CCC(C2CCN(c3cc(N4CC[C@H]4C(=O)NCCc4ccc(C(F)(F)F)cc4)nc(C(F)(F)F)n3)CC2)CC1 [Compound 289, (S)-1-(6-(1′-carbamimidoyl-[4,4′-bipiperidin]-1-yl)-2-(trifluoromethyl)pyrimidin-4-yl)-N-(4-(trifluoromethyl)phenethyl)-azetidine-2-carboxamide] | < 100 nM | < 100 nM |
| N#Cc1ccc(CCNC(=O)[C@@H]2CCCN2c2cc(N3CCC(CCCC(=O)NCCNC(=O)c4cc(NC[C@H](O)[C@@H](O)[C@H](O)[C@H](O)CO)ncn4)CC3)nc(C(F)(F)F)n2)cc1 [Compound 100, N-(2-(4-(1-(6-((S)-2-((4-cyanophenethyl)carbamoyl)pyrrolidin-1-yl)-2-(trifluoromethyl)pyrimidin-4-yl)piperidin-4-yl)butanamido)ethyl)-6-(((2S,3R,4R,5R)-2,3,4,5,6-pentahydroxyhexyl)amino)-pyrimidine-4-carboxamide] | 100 to 999 nM | < 100 nM |

Other lines, results leading:

| EC50 (human TGR5 receptor) | EC50 (mouse TGR5 receptor) | Compound |
| --- | --- | --- |
| < 100 nM | < 100 nM | N#Cc1ccc(CCNC(=O)[C@@H]2CCCN2c2cc(N3CCC(CCNc4c(NCCS(=O)(=O)NCC(=O)O)c(=O)c4=O)CC3)nc(C(F)(F)F)n2)cc1 [Compound 370, (S)-2-(2-((2-((2-(1-(6-(2-((4-cyanophenethyl)carbamoyl)pyrrolidin-1-yl)-2-(trifluoromethyl)pyrimidin-4-yl)piperidin-4-yl)ethyl)amino)-3,4-dioxocyclobut-1-en-1-yl)amino)ethylsulfonamido)acetic acid] |
| 100 to 999 nM | 100 to 999 nM | CC(C)(C)OC(=O)NCCC1CCN(c2cc(N3CCC[C@@H](C(=O)NCCc4ccc(C#N)cc4)C3)nc(C(F)(F)F)n2)CC1 [Compound 312, (R)-tert-butyl (2-(1-(6-(3-((4-cyanophenethyl)carbamoyl)piperidin-1-yl)-2-(trifluoromethyl)pyrimidin-4-yl)piperidin-4-yl)ethyl)carbamate] |
| 100 to 999 nM | < 100 nM | CC(C)(C)OC(=O)CCNc1c(NCCC2CCN(c3cc(N4CC[C@H]4C(=O)NCCc4ccc(C#N)cc4)nc(C(F)(F)F)n3)CC2)c(=O)c1=O [Compound 300, (S)-tert-butyl 3-((2-((2-(1-(6-(2-((4-cyanophenethyl)carbamoyl)azetidin-1-yl)-2-(trifluoromethyl)pyrimidin-4-yl)piperidin-4-yl)ethyl)amino)-3,4-dioxocyclobut-1-en-1-yl)amino)propanoate] |
